Patent US12427212B2, “Nectin-4 binding miniproteins, conjugates and uses thereof” (Aktis Oncology, Inc., priority 2023, dated 2025)
Bridges are numbered along the chain shown (N, C = ends). The star is where a group is joined. DOTA = O=C(O)CN1CCN(CC(=O)O)CCN(CC(=O)*)CCN(CC(=O)O)CC1; PEG4 = NCCOCCOCCOCCOCCC(=O)O

Columns and labels:
[1] = system: Opossum kidney proximal tubule cells; test: Proximal tubule epithelial cell uptake assay; format: cell-based; conditions: for % Uptake of C306: Table 10B, modified lysine miniproteins
Procedure: FIG. 8 is a bar graph of the percent uptake of exemplary miniproteins tested at 20 µM in a proximal tubule epithelial cell assay vs 20 μM control peptide set at 100%. […]
Opossum kidney proximal tubule cells were plated in the upper chamber of 24-well transwell plates containing 600 μL of growth media in the lower chamber and were incubated overnight at 37° C., in 5% CO2. The following day, the media was changed, and cells were incubated an additional 24 h with orbital shaking at 146 RPM. Next, cells were washed and treated in duplicates with biotinylated exemplary miniproteins pre-complexed with streptavidin-AF647 for 1 h at 37° C., and 5% C02 with continuous orbital shaking. Following incubation, cells were washed three times with 1×PBS and lysed with RIPA buffer containing protease and phosphatase inhibitor cocktail and a universal nuclease for 30 minutes. Uptake was measured on 100 μL of lysates using a fluorimeter. Mean % uptake values of control miniprotein C306 in the presence of exemplary miniproteins are provided in TABLE 10A and summarized in FIG. 8.
Uptake of engineered Nectin-4 miniproteins with further modified lysine residues (C298-C304, as described in Example 4B) was evaluated. Percent uptake of these exemplary Nectin-4-targeting miniproteins and C251 were determined against a control miniprotein, C306, using opossum kidney proximal tubule cells as described in Example 18A. Percent uptake of C298, which has an unmodified lysine (K) at amino acid position 26 (along the length of the miniprotein sequence. SEQ ID NO: 162), was 37% in the presence of […]. All other miniproteins having a modified lysine (modified with one or more small alkyl groups of monomethyl, dimethyl, trimethyl, or isopropyl group) had (i) kidney uptake similar to that of C251 and (ii) reduced uptake as compared to C298, which has an unmodified lysine at position 26.

[2] = In vivo biodistribution of 111In-labeled miniproteins by SPECT/CT, HT-1376 xenograft; set-up: species or system mouse; conditions: female, athymic nude, mouse, in vivo
From the text: HT-1376 is a human cell line that expresses Nectin-4.
Humane endpoints: All animals were euthanized following the final imaging time point and carcasses were discarded according to IACUC protocols.
Image Processing: Images were generated as SPECT/CT pairs with the SPECT reported in units of activity.
Image generation: After the preprocessing described in A, individual maximum intensity projections (MIPs) were created with VivoQuant software for each subject at each time point and scaled in percent injected dose per gram (% ID/g). The CT for each image was windowed from −500 to 4500 Hounsfield Units (HU). The SPECT was windowed at various ranges to highlight different regions of uptake. Images were then stitched together using Image Magick based python tools to create montages of subjects over time and time points over groups.

[3] = In vitro metabolic stability in serum/plasma (percent parent remaining, LC-MS); format: in vitro ADME; conditions: mouse
Procedure: Exemplary miniproteins were spiked into biological matrices at initial concentration between 1-2 μM. Tested matrices were varied by species (mouse, rat, human) and type (plasma, serum, and kidney brush border membrane (kBBM) preparations tested each from 0.625-100 μg/mL protein content). Tested conditions were incubated with miniproteins at 37° C. for 4 h. At collection points of 0, 15, 30, 60, 120, 240 minutes, 50 μL of each condition were quenched by organic solvent (methanol or acetonitrile) or the addition of 4% phosphoric acid solution followed by solid-phase extraction. Fractions of each quenched timepoint were subsequently assayed for parent miniproteins concentration by high resolution LC-MS. Percent-parent-remaining-time plots were constructed from the ratio of each given time collection to the time-zero parent miniprotein. Percent-parent-remaining in mouse serum and plasma for exemplary miniproteins are recorded in TABLE 11.

[4] = opossum kidney proximal tubule cells, relative to control miniprotein C306

Molecule | % Uptake of C306 (Control) ([1]; Table 10A, mean percent uptake in opossum kidney cells, 1 h at 37° C., relative to control miniprotein C306) [%] | tissue uptake at 4 h [2] [%ID/g] | tissue uptake at 24 h [2] [%ID/g] | half-life [3] [h] | half-life ([3]; plasma) [h] | % Uptake of C306 [1, 4] [%] | Percent uptake of control miniprotein C306 in the presence of exemplary miniprotein ([1]; opossum kidney proximal tubule cells, 1 h at 37° C.) [%]
CC[C@H](C)[C@@H]1NC(=O)[C@H](Cc2ccc(O)cc2)NC(=O)[C@H](Cc2ccc(O)cc2)NC(=O)[C@@H]2CSSC[C@@H](C(=O)N[C@@H](CO)C(=O)O)NC(=O)CNC(=O)[C@H](CC(C)C)NC(=O)[C@H](CC(N)=O)NC(=O)[C@H](CC(=O)O)NC(=O)[C@H](CC(C)C)NC(=O)[C@H]([C@@H](C)CC)NC(=O)[C@H](CCC(=O)O)NC(=O)[C@H](CCC(=O)O)NC(=O)[C@H]([C@@H](C)CC)NC(=O)[C@H](CSSC[C@H](NC(=O)CCOCCOCCOCCOCCNC(=O)CCCC[C@@H]3SC[C@@H]4NC(=O)N[C@@H]43)C(=O)N[C@@H](CCC(=O)O)C(=O)N[C@@H](Cc3ccc(O)cc3)C(=O)N[C@@H](CC(=O)O)C(=O)N[C@@H](CCC(=O)O)C(=O)N[C@@H](CCC(=O)O)C(=O)N[C@@H](Cc3ccccc3)C(=O)N[C@@H](Cc3ccccc3)C(=O)N[C@@H]([C@@H](C)O)C(=O)N[C@@H](C)C(=O)N[C@@H](CC(C)C)C(=O)N[C@@H](CCCCN)C(=O)N[C@@H](CCCNC(=N)N)C(=O)N[C@@H](CC(C)C)C(=O)N[C@@H](CCCNC(=N)N)C(=O)NCC(=O)NCC(=O)N[C@@H](CC(=O)O)C(=O)N[C@@H]([C@@H](C)CC)C(=O)N2)NC(=O)[C@H](CC(C)C)NC(=O)CNC(=O)[C@@H]2CCCN2C(=O)[C@H](CC(C)C)NC(=O)[C@H](Cc2ccc(O)cc2)NC(=O)[C@H](CCC(N)=O)NC(=O)[C@H](Cc2ccccc2)NC(=O)[C@H](CO)NC(=O)[C@H](C)NC(=O)[C@H](CCC(N)=O)NC1=O [Compound C111] | 20.8 | – | – | – | – | – | –
CC[C@H](C)[C@@H]1NC(=O)[C@H](Cc2ccc(O)cc2)NC(=O)[C@H](CCC(=O)O)NC(=O)[C@@H]2CSSC[C@@H](C(=O)N[C@@H](CO)C(=O)O)NC(=O)CNC(=O)[C@H](CC(C)C)NC(=O)[C@H](CC(N)=O)NC(=O)[C@H](CC(=O)O)NC(=O)[C@H](CC(C)C)NC(=O)[C@H]([C@@H](C)CC)NC(=O)[C@H](CCC(=O)O)NC(=O)[C@H](CCC(=O)O)NC(=O)[C@H]([C@@H](C)CC)NC(=O)[C@H](CSSC[C@H](NC(=O)CCOCCOCCOCCOCCNC(=O)CN3CCN(CC(=O)O)CCN(CC(=O)O)CCN(CC(=O)O)CC3)C(=O)N[C@@H](CC(=O)O)C(=O)N[C@@H](Cc3ccc(O)cc3)C(=O)N[C@@H](CC(=O)O)C(=O)N[C@@H](CCC(=O)O)C(=O)N[C@@H](CCC(N)=O)C(=O)N[C@@H](Cc3ccccc3)C(=O)N[C@@H](Cc3ccccc3)C(=O)N[C@@H]([C@@H](C)O)C(=O)N[C@@H](C)C(=O)N[C@@H](CC(C)C)C(=O)N[C@@H](CCCCN)C(=O)N[C@@H](CCCNC(=N)N)C(=O)N[C@@H](CC(C)C)C(=O)N[C@@H](CCCNC(=N)N)C(=O)NCC(=O)N[C@@H](C)C(=O)N[C@@H](CC(=O)O)C(=O)N[C@@H]([C@@H](C)CC)C(=O)N2)NC(=O)[C@H](CCC(=O)O)NC(=O)CNC(=O)[C@@H]2CCCN2C(=O)[C@H](CC(C)C)NC(=O)[C@H](Cc2ccc(O)cc2)NC(=O)[C@H](CCC(N)=O)NC(=O)[C@H](Cc2ccccc2)NC(=O)[C@H](CO)NC(=O)[C@H](C)NC(=O)[C@H](CCC(N)=O)NC1=O [Compound C271] | – | 59.1 | 34.3 | > 12 | > 12 | – | –
CC[C@H](C)[C@@H]1NC(=O)[C@H](Cc2ccc(O)cc2)NC(=O)[C@H](CCC(N)=O)NC(=O)[C@@H]2CSSC[C@@H](C(=O)N[C@@H](CO)C(=O)O)NC(=O)CNC(=O)[C@H](CC(C)C)NC(=O)[C@H](CC(N)=O)NC(=O)[C@H](CC(=O)O)NC(=O)[C@H](CC(C)C)NC(=O)[C@H]([C@@H](C)CC)NC(=O)[C@H](CCC(=O)O)NC(=O)[C@H](CCC(=O)O)NC(=O)[C@H]([C@@H](C)CC)NC(=O)[C@H](CSSC[C@H](NC(=O)CCOCCOCCOCCOCCNC(=O)CCCC[C@@H]3SC[C@@H]4NC(=O)N[C@@H]43)C(=O)N[C@@H](CCC(=O)O)C(=O)N[C@@H](Cc3ccc(O)cc3)C(=O)N[C@@H](CC(=O)O)C(=O)N[C@@H](CCC(=O)O)C(=O)N[C@@H](CCC(=O)O)C(=O)N[C@@H](Cc3ccccc3)C(=O)N[C@@H](Cc3ccccc3)C(=O)N[C@@H]([C@@H](C)O)C(=O)N[C@@H](C)C(=O)N[C@@H](CC(C)C)C(=O)N[C@@H](C)C(=O)N[C@@H](CCCNC(=N)N)C(=O)N[C@@H](CC(C)C)C(=O)N[C@@H](CCCNC(=N)N)C(=O)NCC(=O)NCC(=O)N[C@@H](CC(=O)O)C(=O)N[C@@H]([C@@H](C)CC)C(=O)N2)NC(=O)[C@H](CC(C)C)NC(=O)[C@H](C)NC(=O)[C@@H]2CCCN2C(=O)[C@H](CC(C)C)NC(=O)[C@H](Cc2ccc(O)cc2)NC(=O)[C@H](CCC(N)=O)NC(=O)[C@H](Cc2ccccc2)NC(=O)[C@H](CCCCN)NC(=O)[C@H](C)NC(=O)[C@H](CCC(N)=O)NC1=O [Compound C298] | – | – | – | – | – | 37 | 37
CC[C@H](C)[C@@H]1NC(=O)[C@H](Cc2ccc(O)cc2)NC(=O)[C@H](CCC(N)=O)NC(=O)[C@@H]2CSSC[C@@H](C(=O)N[C@@H](CO)C(=O)O)NC(=O)CNC(=O)[C@H](CC(C)C)NC(=O)[C@H](CC(N)=O)NC(=O)[C@H](CC(=O)O)NC(=O)[C@H](CC(C)C)NC(=O)[C@H]([C@@H](C)CC)NC(=O)[C@H](CCC(=O)O)NC(=O)[C@H](CCC(=O)O)NC(=O)[C@H]([C@@H](C)CC)NC(=O)[C@H](CSSC[C@H](NC(=O)CCOCCOCCOCCOCCNC(=O)CCCC[C@@H]3SC[C@@H]4NC(=O)N[C@@H]43)C(=O)N[C@@H](CCC(=O)O)C(=O)N[C@@H](Cc3ccc(O)cc3)C(=O)N[C@@H](CC(=O)O)C(=O)N[C@@H](CCC(=O)O)C(=O)N[C@@H](CCC(=O)O)C(=O)N[C@@H](Cc3ccccc3)C(=O)N[C@@H](Cc3ccccc3)C(=O)N[C@@H]([C@@H](C)O)C(=O)N[C@@H](C)C(=O)N[C@@H](CC(C)C)C(=O)N[C@@H](C)C(=O)N[C@@H](CCCNC(=N)N)C(=O)N[C@@H](CC(C)C)C(=O)N[C@@H](CCCNC(=N)N)C(=O)NCC(=O)NCC(=O)N[C@@H](CC(=O)O)C(=O)N[C@@H]([C@@H](C)CC)C(=O)N2)NC(=O)[C@H](CC(C)C)NC(=O)[C@H](C)NC(=O)[C@@H]2CCCN2C(=O)[C@H](CC(C)C)NC(=O)[C@H](Cc2ccc(O)cc2)NC(=O)[C@H](CCC(N)=O)NC(=O)[C@H](Cc2ccccc2)NC(=O)[C@H](CCCCNC)NC(=O)[C@H](C)NC(=O)[C@H](CCC(N)=O)NC1=O [Compound C299] | – | – | – | – | – | 3 | –
{DOTA-PEG4}-CEYDEEFFTALARLRGDDICSYIQAKFQYLPGLCIEEILDNLGCS-OH (disulfide 1-34, 20-44 (inferred)) [Compound C293] | – | 55.8 | 32.6 | > 12 | > 12 | – | –
{DOTA-PEG4}-CEYDEQFFTALKRLRGADICSYIQASFQYLPGLCIEEILDNLGCS-OH (disulfide 1-34, 20-44) [Compound C250] | – | 67.5 | 34.9 | > 12 | > 12 | – | –
